Data: the supplement of paper PMC10307832

What was measured:
Experiment in all cases: relative viability (nuclei count vs DMSO), 5 days (fraction); higher = more cells survive
[1] = compound: O=C(C[C@H]1NCCC[C@@H]1O)Cn1cnc2cc(Br)c(Cl)cc2c1=O (racemic) [Halofuginone] + Cc1cc(Nc2cc(N3CCN(C)CC3)nc(Sc3ccc(NC(=O)C4CC4)cc3)n2)n[nH]1 [Tozasertib] (partner 0.1 µM)
Outline: (§1)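 Dosing by pin tool came one day after lung cancer cell lines were seeded in 1536-well plates, using either one drug or a fixed anchor-drug dose plus five library-drug doses (not always all listed) in √10 steps. After 5 days, nuclei were counted on 4× images. Relative viability is treated-well nuclei count divided by vehicle-well nuclei count, and values are medians of duplicate plates.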

[2] = compound: O=C(C[C@H]1NCCC[C@@H]1O)Cn1cnc2cc(Br)c(Cl)cc2c1=O (racemic) [Halofuginone] + CC(=O)c1c(C)c2cnc(Nc3ccc(N4CCNCC4)cn3)nc2n(C2CCCC2)c1=O [Palbociclib] (partner 0.5 µM)
Outline: as §1

[3] = compound: O=C(C[C@H]1NCCC[C@@H]1O)Cn1cnc2cc(Br)c(Cl)cc2c1=O (racemic) [Halofuginone] + Cc1nc(NC(=O)N2CCC[C@H]2C(N)=O)sc1-c1ccnc(C(C)(C)C(F)(F)F)c1 [Alpelisib] (partner 2 µM)
Outline: as §1

[4] = compound: COc1cc2c(Oc3ccc4[nH]c(C)cc4c3F)ncnc2cc1OCCCN1CCCC1 [Cediranib] + O=C(CCCCCCC(=O)Nc1ccccc1)NO [Vorinostat] (partner 1 µM)
Outline: as §1

Row | Cell Line | relative viability ([1]; first compound 0.001 µM) | relative viability ([1]; first compound 0.003162 µM) | relative viability ([1]; first compound 0.01 µM) | relative viability ([1]; first compound 0.03162 µM) | relative viability ([1]; first compound 0.1 µM) | relative viability ([2]; first compound 0.001 µM) | relative viability ([2]; first compound 0.003162 µM) | relative viability ([2]; first compound 0.01 µM) | relative viability ([2]; first compound 0.03162 µM) | relative viability ([2]; first compound 0.1 µM) | relative viability ([3]; first compound 0.001 µM) | relative viability ([3]; first compound 0.003162 µM) | relative viability ([3]; first compound 0.01 µM) | relative viability ([3]; first compound 0.03162 µM) | relative viability ([3]; first compound 0.1 µM) | relative viability ([4]; first compound 0.04 µM) | relative viability ([4]; first compound 0.1265 µM) | relative viability ([4]; first compound 0.4 µM) | relative viability ([4]; first compound 1.265 µM) | relative viability ([4]; first compound 4 µM)
1 | LOU-NH91 | 0.7 | 0.791 | 0.642 | 0.705 | 0.576 | 0.567 | 0.515 | 0.494 | 0.492 | 0.589 | 0.774 | 0.731 | 0.721 | 0.741 | 0.64 | 0.898 | 0.696 | 0.873 | 0.823 | 0.857
2 | LU99A | 0.277 | 0.295 | 0.271 | 0.296 | 0.36 | 0.444 | 0.466 | 0.393 | 0.401 | 0.41 | 0.553 | 0.488 | 0.538 | 0.475 | 0.326 | 0.456 |  | 0.51 | 0.407 | 0.578
3 | NCI-H522 | 0.528 | 0.566 | 0.572 | 0.512 | 0.491 | 0.861 | 0.756 | 0.829 | 1.04 | 0.95 |  |  |  |  |  | 0.842 | 0.472 | 0.925 | 0.817 | 0.811
4 | NCI-H596 | 1.04 | 0.871 | 0.953 | 0.543 | 0.303 |  |  |  |  |  | 0.478 | 0.467 | 0.453 | 0.544 | 0.465 | 0.584 | 0.488 | 0.585 | 0.682 | 0.836
5 | NCI-H1299 |  |  |  |  |  |  |  |  |  |  | 1.04 | 1.09 | 1.02 | 1.01 | 1.04 |  |  |  |  | 
6 | NCI-H1563 |  |  |  |  |  |  |  |  |  |  | 0.874 | 0.935 | 0.851 | 0.633 | 0.508 |  |  |  |  | 
7 | NCI-H1623 | 0.487 | 0.44 | 0.459 | 0.459 | 0.426 |  |  |  |  |  |  |  |  |  |  |  |  |  |  | 
8 | NCI-H1648 | 0.763 | 0.526 | 0.643 | 0.44 | 0.4 | 0.28 | 0.322 | 0.178 | 0.261 | 0.249 |  |  |  |  |  | 0.569 | 0.474 | 0.511 | 0.271 | 0.425
9 | NCI-H1650 | 0.559 | 0.384 | 0.357 | 0.29 | 0.192 | 0.265 | 0.303 | 0.323 | 0.323 | 0.173 |  |  |  |  |  | 0.629 | 0.546 | 0.599 | 0.548 | 0.679
10 | NCI-H1703 |  |  |  |  |  |  |  |  |  |  | 0.334 | 0.398 | 0.239 | 0.27 | 0.165 |  |  |  |  | 
11 | NCI-H1792 |  |  |  |  |  | 0.613 | 0.704 | 0.666 | 0.662 | 0.585 | 0.795 | 0.724 | 0.702 | 0.662 | 0.686 |  |  |  |  | 
12 | NCI-H2342 | 0.522 | 0.493 | 0.498 | 0.478 | 0.506 | 0.503 | 0.578 | 0.511 | 0.512 | 0.527 |  |  |  |  |  | 0.712 | 0.791 | 0.733 | 0.613 | 0.758
13 | SW 900 | 0.611 | 0.557 | 0.558 | 0.46 | 0.258 | 0.626 | 0.483 |  | 0.622 | 0.215 |  |  |  |  |  | 0.425 | 0.413 | 0.438 | 0.478 | 0.495
